Experimental findings from patent publication US8658637B2, “Glucocorticoid mimetics, methods of making them, pharmaceutical compositions and uses thereof” (Boehringer Ingelheim International GmbH, priority 2006, dated 2014) are described below.

A word on the melting point: it is the temperature of the solid-liquid transition. A word on the pEC50: it is −log10 of the EC50, conventionally taken in molar units.

In data set [1] the test system is IL-6 production in human foreskin fibroblast cells. In words: Inhibition of IL-6 Production in Fibroblasts (Cell Assay for Transrepression). Type of data set: cell-based. The following applies: IL-1 stimulated human foreskin fibroblasts; for pEC50: read-out: agonistic activity (EC50) by inhibiting IL-6 production in Fibroblasts; for Emax: read-out: efficacy by inhibiting IL-6 production in Fibroblasts. On the procedure: 2. Inhibition of IL-6 Production in Fibroblasts (Cell Assay for Transrepression)
Human foreskin fibroblast cells produce IL-6 in response to stimulation by proinflammatory cytokine IL-1.
Human foreskin fibroblast cells (ATCC Cat. No. CRL-2429) are plated on 96 well plates at 5,000 cells per well the day before use, in Iscove's Modified Dulbecco's Media (GibcoBRL Life Technologies Cat. No. 12440-053) supplemented with 10% charcoal filtered FBS (Clonetech Cat. No. SH30068) and Gentamycin (GibcoBRL Life Technologies Cat. No. 15710-064). On the next day, media in the wells is replaced with fresh media. Cells are treated with IL-1 (rhIL-1α, R&D Systems Cat. No. 200-LA) to a final concentration of 1 ng/mL, and with test compounds to final concentrations of 10^−5 M to 10^−8 M, in a total volume of 200 μL per well. Samples are done in duplicates. […] Positive control wells receive IL-1 only and represent maximum (or 100%) amount of IL-6 production. Plates are incubated at 37° C. overnight (15 to 18 hours), and supernatants are harvested at the end of incubation. IL-6 levels in the supernatants are determined by the ELISA kits for IL-6 (MedSystems Diagnostics GmbH, Vienna, Austria, Cat. No. BMS213TEN) according to manufacture's instructions. The extent of inhibition of IL-6 by test compounds is expressed in percentage relative to positive controls. IC50 values of test compounds are derived by non-linear curve fitting.

pEC50: −log10 of the molar value.

Regarding `OC(c1cnc2c(cnn2-c2ccccc2)c1)(c1c[nH]c2ncccc12)C(F)(F)F` (stereo not drawn), the melting point lay in the range of 137 to 141 °C.
Still for that read-out and setting: then `C=CCn1cc(C(O)(c2ccc3c(cnn3-c3ccc(F)cc3)c2)C(F)(F)F)c2ccn(C)c(=O)c21` (stereo not drawn) [Example 75, 1-Allyl-6-methyl-3-{2,2,2-trifluoro-1-[1-(4-fluorophenyl)-1H-indazol-5-yl]-1-hydroxyethyl}-1,6-dihydropyrrolo[2,3-c]pyridin-7-one], with 91 to 93 °C.
With `OCC(O)Cn1cc(C(O)(c2ccn3c(-c4ccc(F)cc4)ncc3c2)C(F)(F)F)c2ccccc21` (stereo not drawn) [3-(3-{2,2,2-Trifluoro-1-[3-(4-fluorophenyl)imidazo[1,5-a]pyridin-7-yl]-1-hydroxyethyl}indol-1-yl)propane-1,2-diol], in data set [1], the pEC50 is no less than 6.00 and the Emax is greater than 50%.
The corresponding values for `Cn1cc(C(O)(c2ccc3c(cnn3-c3cccnc3)c2)C(F)(F)F)c2ccccc21` (stereo not drawn) [2,2,2-Trifluoro-1-(1-methyl-1H-indol-3-yl)-1-(1-pyridin-3-yl-1H-indazol-5-yl)ethanol] are no less than 6.00 and greater than 50%.
`Cn1cc(-n2ncc3cc(C(O)(c4cn(C)c5ccccc45)C(F)(F)F)ccc32)cn1` (stereo not drawn) [2,2,2-Trifluoro-1-(1-methyl-1H-indol-3-yl)-1-[1-(1-methyl-1H-pyrazol-4-yl)-1H-indazol-5-yl]ethanol]: in data set [1], the pEC50 was no less than 6.00 and the Emax is greater than 50%.
Taken in the same sequence, the figures for `OC(c1ccc2c(cnn2-c2ccc(F)cc2)c1)(c1c[nH]c2ncccc12)C(F)(F)F` (stereo not drawn) [2,2,2-Trifluoro-1-[1-(4-fluorophenyl)-1H-indazol-5-yl]-1-(1H-pyrrolo[2,3-b]pyridin-3-yl)ethanol] were no less than 6.00 and greater than 50%.
The corresponding values for `CCOC(=O)c1cc(C(O)(c2ccc3c(cnn3-c3ccc(F)cc3)c2)C(F)(F)F)cn1CC(O)CO` (stereo not drawn) [1-(2,3-Dihydroxypropyl)-4-{2,2,2-trifluoro-1-[1-(4-fluorophenyl)-1H-indazol-5-yl]-1-hydroxyethyl}-1H-pyrrole-2-carboxylic acid ethyl ester] are no less than 6.00 and greater than 50%.
